These results are taken from patent US6653327B2, “Cross-regulin composition of tumeric-derived tetrahydrocurcuminoids for skin lightening and protection against UVB rays” (Sabinsa Corporation, priority 1999, dated 2003).

Molecules are shown by their SMILES.

One assay relates to TPA-induced ear edema. In words: TPA-induced ear edema in mice (ear punch weight). The class given is in vivo, Female CF-1 mice. The note with it: 5 hours; for Wg/punch: mean SE. As for the experimental part: Applicants have postulated that the crossregulin composition of the invention is an optimal composition for protecting and preserving healthy living cells and for preventing cytoskeletons of the healthy living cells from being damaged by TPA and TPA-like tumor promoters. In an experiment conducted in vivo, the ear skin of Female CF-1 mice was treated with either 20 microliters acetone, TPA in acetone or TPA with Tetrahydrocurcuminoids of the invention [THC1], known Tetrahydrocurcuminoids [THC2] and known pure (synthetic) Tetrahydrocurcumin [THC3].
Five hours later the mice were sacrificed and ear punches were weighted (the higher the weight, score the more severe the inflammation of the treated ear-skin). Based on the weight score of the ear punches, the percent of inflammation inhibition was calculated. Protection against inflammation in decreasing order was furnished by THC1 of the invention, followed by THC2 of the prior art, and finally followed by THC3. […] Prior art, as exemplified by the research data, cannot accomplish inhibition of the TPA induced ear edema above 80%. More than 80% inhibition of TPA-induced ear edema is necessary to prevent crosslinking of proteins which could trigger skin cancer. Therefore crossregulin action is not an inherent part of just any composition of THCs, but it is a specific composition that affords inhibition of the TPA mechanism by more than 80%.

Assay [1] concerns UVB-induced sunburn cells and p21 protein in epidermis. As to the kind of experiment: UVB-induced formation of sunburn cells and p21 protein levels in epidermis. The class given is in vivo, SKH-1 mice. As to conditions: 8 hours after UVB. The procedure:
Female Sencar mice (5 mice per group) were treated topically with 100 ul acetone or inhibitor in acetone at 5 min before a single dose of UVB (60 mJ/cm2) irradiation. The mice were killed 8 hours after UVB irradiation, and the skin biopsies were evaluated for sunburn cells and p21 protein.

Where [2] appears, read: 10 uM topical 5 min before UVB (60 mJ/cm2).
The mark [3] stands for this setting: 20 uM topical 5 min before UVB (60 mJ/cm2).

As for `COc1cc(CCC(=O)CC(=O)CCc2ccc(O)c(OC)c2)ccc1O` [THC3, tetrahydrocurcumin], the Wg/punch with TPA-induced ear edema (dose 0.36 mg topical with TPA (1 nmol) in acetone on both ears) is listed as 8.1 ± 0.3; with TPA-induced ear edema (dose 0.12 topical with TPA (1 nmol) in acetone on both ears) it was 7.8 ± 0.3. The “% inhibition of TPA-induced ear edema” value with TPA-induced ear edema (dose 0.36 mg topical with TPA (1 nmol)) came to 77.2%; with TPA-induced ear edema (dose 0.12 topical with TPA (1 nmol)), 81.0%.
As to `O=C(CC(=O)c1ccccc1)c1ccccc1` [DBM, dibenzoylmethane], in assay [1] (setting [2]), the “% p21” value is listed as 1.2%, the “Number of positive cells per 1 cm slide (p21)” value came to 33.5 ± 7.49, the “Number of sunburn cells per 1 cm slide” value is 13.2 ± 5.35 and the “Percent Of Sunburn cells” value is reported as 1.2. Moreover, in assay [1] (setting [3]), the “% p21” value stood at 2.2%, the “Number of positive cells per 1 cm slide (p21)” value is reported as 60.6 ± 12.9, the “Number of sunburn cells per 1 cm slide” value is recorded as 8.6 ± 1.78 and the “Percent Of Sunburn cells” value was 0.9.
